The test system of this test is NCI-H510 multicellular tumor spheroid growth, % test/control. As to the kind of experiment: Anticancer human tumor NCI-H510 cell line growth inhibition [Asc].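 As to all read-outs here: spheroids exposed to agents for 7 days.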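 As to viability, T/C: 100% = DMSO vehicle control wells.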 To be noted: for viability, T/C: stronger effect = lower value. The method in brief: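 Stromal components (HUVEC and hMSC) are co-assembled with the cancer cells into multicellular spheroids. Drugs are then added singly or paired, at concentrations falling by half-log increments from a clinically achievable maximum, capped at 10 microM without known Cmax.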

Several values for one entry are separate records, joined by “and”; a condition that tells them apart may be missing. Equal entries are not always repeated.

A word on the IC50: it is the point on the concentration scale where inhibition reaches its midpoint. One may read the viability, T/C as the result in the treated group divided by that in the control group, in per cent. `COc1c(OCCCN2CCOCC2)ccc2c3n(c(=NC(=O)c4cnc(N)nc4)nc12)CCN3` + CNC(C)C(=O)NC1CN(S(=O)(=O)c2cccc(S(=O)(=O)N3CCC4CCC(C(=O)NC(c5ccccc5)c5ccccc5)N4C(=O)C(NC(=O)C(C)NC)C3)c2)CCC2CCC(C(=O)NC(c3ccccc3)c3ccccc3)N2C1=O: the IC50 by setting is: (curve of first compound, second compound 0.01 µM) over 1000 nM; (curve of first compound, second compound 0.0316 µM) over 1000 nM; (curve of first compound, second compound 0.1 µM) over 1000 nM; (curve of first compound, second compound 0.316 µM) over 1000 nM; (curve of first compound, second compound 1 µM) over 1000 nM. Further, the viability, T/C (second compound 0.01 µM, first compound 0.00316 µM) is 119%; the viability, T/C (second compound 0.01 µM, first compound 0.01 µM) was 104%; the viability, T/C (second compound 0.01 µM, first compound 0.0316 µM) is 118%; the viability, T/C (second compound 0.01 µM, first compound 0.1 µM) was 130%; the viability, T/C (second compound 0.01 µM, first compound 0.316 µM) was 127%; the viability, T/C (second compound 0.01 µM, first compound 1 µM) was 128%. The viability, T/C runs as follows: (second compound 0.0316 µM, first compound 0.00316 µM) 106%; (second compound 0.0316 µM, first compound 0.01 µM) 114%; (second compound 0.0316 µM, first compound 0.0316 µM) 125%; (second compound 0.0316 µM, first compound 0.1 µM) 117%; (second compound 0.0316 µM, first compound 0.316 µM) 120%; (second compound 0.0316 µM, first compound 1 µM) 113%. Further, the viability, T/C (second compound 0.1 µM, first compound 0.00316 µM) was 92.2%; the viability, T/C (second compound 0.1 µM, first compound 0.01 µM) is 109%; the viability, T/C (second compound 0.1 µM, first compound 0.0316 µM) is 106%; the viability, T/C (second compound 0.1 µM, first compound 0.1 µM) is 128%; the viability, T/C (second compound 0.1 µM, first compound 0.316 µM) is 112%; the viability, T/C (second compound 0.1 µM, first compound 1 µM) was 125%. The viability, T/C is 115% (second compound 0.316 µM, first compound 0.00316 µM); 104% (second compound 0.316 µM, first compound 0.01 µM); 108% (second compound 0.316 µM, first compound 0.0316 µM); 105% (second compound 0.316 µM, first compound 0.1 µM); 121% (second compound 0.316 µM, first compound 0.316 µM); 109% (second compound 0.316 µM, first compound 1 µM). The viability, T/C (second compound 1 µM, first compound 0.00316 µM) was 107%; the viability, T/C (second compound 1 µM, first compound 0.01 µM) was 113%; the viability, T/C (second compound 1 µM, first compound 0.0316 µM) is 112%; the viability, T/C (second compound 1 µM, first compound 0.1 µM) is 139%; the viability, T/C (second compound 1 µM, first compound 0.316 µM) was 116%; the viability, T/C (second compound 1 µM, first compound 1 µM) is 110%.
On to `O=C(c1cc(Cc2n[nH]c(=O)c3ccccc23)ccc1F)N1CCN(C(=O)C2CC2)CC1`, for which the viability, T/C by setting is: (compound 0.0316 µM) 93% and 95.9% and 99.4%; (compound 0.1 µM) 101% and 80.6% and 86.1%; (compound 0.316 µM) 69.5% and 59% and 83.9%; (compound 1 µM) 60% and 90.4% and 76.8%; (compound 3.16 µM) 29% and 43.1% and 88%. Moreover, the IC50 (curve of compound) was 1300 nM and 2570 nM and > 10000 nM.

Source of the values: PubChem BioAssay AID1963438 (Molecular Pharmacology Branch, DTP, NCI, 2024).
